# Results as given in US10633371B2, “EZH2 inhibitors and uses thereof” (Dana-Farber Cancer Institute, Inc., priority 2016, dated 2020).
# Key:
# EZH2 = EZH2 (Homo sapiens, UniProt Q15910); assay: Inhibitory activity and time dependence against EZH2 (FIG. 2A); type: biochemical; conditions: result in words
# Excerpt: (§1) As depicted in FIG. 2A, Compounds EZ-40, EZ-49, EZ-51, EZ-52, EZ-53, and JQ-80 were profiled for inhibitory activity and time dependence against EZH1 and EZH2.
# EZH1 = EZH1 (Homo sapiens, UniProt Q92800); assay: Inhibitory activity and time dependence against EZH1 (FIG. 2A); type: biochemical; conditions: result in words
# Excerpt: as §1
# EZH2, sequence (Q15910 whole entry): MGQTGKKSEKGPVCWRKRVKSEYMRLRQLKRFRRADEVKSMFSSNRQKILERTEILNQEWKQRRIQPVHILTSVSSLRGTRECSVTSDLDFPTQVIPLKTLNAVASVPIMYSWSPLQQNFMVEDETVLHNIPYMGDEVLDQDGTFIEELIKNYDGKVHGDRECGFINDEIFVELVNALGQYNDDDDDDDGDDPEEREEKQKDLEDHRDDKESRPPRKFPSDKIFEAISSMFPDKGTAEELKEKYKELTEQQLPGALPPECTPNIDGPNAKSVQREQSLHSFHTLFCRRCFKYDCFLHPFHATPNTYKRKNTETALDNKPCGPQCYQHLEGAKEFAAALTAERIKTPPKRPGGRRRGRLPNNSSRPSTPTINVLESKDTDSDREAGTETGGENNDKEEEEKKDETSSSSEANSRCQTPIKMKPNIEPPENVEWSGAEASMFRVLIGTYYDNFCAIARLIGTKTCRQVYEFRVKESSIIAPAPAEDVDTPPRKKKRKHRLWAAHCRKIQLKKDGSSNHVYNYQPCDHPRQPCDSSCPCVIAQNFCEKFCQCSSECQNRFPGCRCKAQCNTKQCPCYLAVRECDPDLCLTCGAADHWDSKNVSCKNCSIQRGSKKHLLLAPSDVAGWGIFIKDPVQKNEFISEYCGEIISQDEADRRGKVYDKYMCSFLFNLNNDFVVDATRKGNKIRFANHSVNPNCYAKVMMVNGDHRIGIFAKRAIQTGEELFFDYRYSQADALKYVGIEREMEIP
# EZH2, sequence (O75530 whole entry partner): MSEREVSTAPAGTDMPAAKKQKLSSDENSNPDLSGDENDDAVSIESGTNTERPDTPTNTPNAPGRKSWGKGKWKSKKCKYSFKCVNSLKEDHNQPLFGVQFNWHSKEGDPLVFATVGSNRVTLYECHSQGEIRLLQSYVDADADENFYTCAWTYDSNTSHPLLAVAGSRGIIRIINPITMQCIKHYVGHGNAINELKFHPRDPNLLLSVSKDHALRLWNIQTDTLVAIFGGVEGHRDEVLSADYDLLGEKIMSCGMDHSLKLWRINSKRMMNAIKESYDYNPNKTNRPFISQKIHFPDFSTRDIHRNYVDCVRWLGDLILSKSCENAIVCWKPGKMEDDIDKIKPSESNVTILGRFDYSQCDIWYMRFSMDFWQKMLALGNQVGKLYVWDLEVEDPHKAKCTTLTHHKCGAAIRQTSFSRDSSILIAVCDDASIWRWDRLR
# EZH2, sequence (Q15022 whole entry partner): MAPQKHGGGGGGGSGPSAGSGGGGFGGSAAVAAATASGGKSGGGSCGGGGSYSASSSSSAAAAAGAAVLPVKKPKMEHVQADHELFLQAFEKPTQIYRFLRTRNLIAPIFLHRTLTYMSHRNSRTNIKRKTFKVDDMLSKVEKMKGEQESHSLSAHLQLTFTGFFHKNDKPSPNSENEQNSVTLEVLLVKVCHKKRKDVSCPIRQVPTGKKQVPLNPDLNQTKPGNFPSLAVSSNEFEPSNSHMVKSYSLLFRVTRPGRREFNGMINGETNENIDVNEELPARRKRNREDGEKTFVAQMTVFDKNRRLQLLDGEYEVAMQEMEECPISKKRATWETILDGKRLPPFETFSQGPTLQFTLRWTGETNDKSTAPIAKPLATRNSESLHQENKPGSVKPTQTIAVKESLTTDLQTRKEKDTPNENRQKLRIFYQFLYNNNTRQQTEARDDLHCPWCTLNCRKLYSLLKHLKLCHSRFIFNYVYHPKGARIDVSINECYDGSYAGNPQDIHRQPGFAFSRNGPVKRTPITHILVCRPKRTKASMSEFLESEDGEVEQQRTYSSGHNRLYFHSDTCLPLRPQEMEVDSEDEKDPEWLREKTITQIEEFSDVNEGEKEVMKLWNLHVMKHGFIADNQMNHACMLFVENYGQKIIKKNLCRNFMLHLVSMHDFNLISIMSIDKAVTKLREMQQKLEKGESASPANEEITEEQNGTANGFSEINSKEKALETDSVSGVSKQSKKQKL
# EZH1, sequence (Q92800 whole entry): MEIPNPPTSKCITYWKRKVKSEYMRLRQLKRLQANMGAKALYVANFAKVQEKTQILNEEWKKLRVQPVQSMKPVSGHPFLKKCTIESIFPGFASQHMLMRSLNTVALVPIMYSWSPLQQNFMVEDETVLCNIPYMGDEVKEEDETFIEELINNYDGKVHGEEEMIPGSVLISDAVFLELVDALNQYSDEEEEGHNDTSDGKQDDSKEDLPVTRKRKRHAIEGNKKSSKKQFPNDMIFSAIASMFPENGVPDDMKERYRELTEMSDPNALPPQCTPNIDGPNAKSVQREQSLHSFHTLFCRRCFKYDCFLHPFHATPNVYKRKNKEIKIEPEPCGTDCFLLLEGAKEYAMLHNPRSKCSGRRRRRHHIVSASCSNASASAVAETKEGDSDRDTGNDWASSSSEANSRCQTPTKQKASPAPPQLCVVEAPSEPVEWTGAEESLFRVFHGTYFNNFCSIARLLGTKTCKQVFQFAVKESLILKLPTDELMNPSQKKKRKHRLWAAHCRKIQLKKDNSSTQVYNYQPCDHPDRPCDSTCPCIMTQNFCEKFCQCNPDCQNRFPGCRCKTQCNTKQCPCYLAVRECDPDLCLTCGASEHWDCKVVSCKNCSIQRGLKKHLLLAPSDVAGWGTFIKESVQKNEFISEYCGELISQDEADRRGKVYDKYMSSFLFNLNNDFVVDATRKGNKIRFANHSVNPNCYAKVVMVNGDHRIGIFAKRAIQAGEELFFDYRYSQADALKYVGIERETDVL
# EZH1, sequence (O75530 whole entry partner): as the sequence (O75530 whole entry partner) above
# EZH1, sequence (Q15022 whole entry partner): as the sequence (Q15022 whole entry partner) above
compound,measurement,setting,value
C=CC(=O)N(c1cc(-c2ccc(N3CCN(C)CC3)nc2)cc(C(=O)NCc2c(CCC)cc(C)[nH]c2=O)c1C)C1CCOCC1 [EZ-53],inhibitory activity,EZH2,high potency
same,mode of inhibition,EZH2,irreversible inhibitor
same,time dependence,EZH2,time dependency
same,inhibitory activity,EZH1,high potency
same,mode of inhibition,EZH1,irreversible inhibitor
same,time dependence,EZH1,time dependency
